Experimental data taken from patent US20160296499A1, “Spiroindoline Antiparasitic Derivatives” (ZOETIS SERVICES LLC, priority 2013, published 2016).
Where two headings read alike, the source gives them in different places.

How the values were obtained:
[1] = biological target: T1, bovine vesicular acetylcholine transporter (VAChT) (Bos taurus, UniProt E1BK36); assay: Radioligand Binding Assay; settings: Bovine binding Ki, CHO-K1 membranes with recombinant bovine VAChT, [3H]Compound X6 0.3 nM
T1 sequence (E1BK36 1-524): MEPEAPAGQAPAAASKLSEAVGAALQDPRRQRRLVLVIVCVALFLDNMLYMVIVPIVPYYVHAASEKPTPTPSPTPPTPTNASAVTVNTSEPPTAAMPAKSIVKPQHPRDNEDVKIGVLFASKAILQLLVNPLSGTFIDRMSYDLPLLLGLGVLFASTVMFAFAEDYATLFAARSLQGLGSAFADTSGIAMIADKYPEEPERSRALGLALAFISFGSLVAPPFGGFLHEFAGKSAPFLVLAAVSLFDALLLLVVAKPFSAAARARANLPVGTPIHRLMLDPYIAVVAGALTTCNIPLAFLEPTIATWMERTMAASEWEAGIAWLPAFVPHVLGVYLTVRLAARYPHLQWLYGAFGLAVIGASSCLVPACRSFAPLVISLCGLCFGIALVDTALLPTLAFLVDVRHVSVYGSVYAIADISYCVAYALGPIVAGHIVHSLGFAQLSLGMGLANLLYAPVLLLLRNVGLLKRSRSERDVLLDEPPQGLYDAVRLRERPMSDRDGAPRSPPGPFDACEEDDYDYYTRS

[2] = test system: Dirofilaria immitis microfilariae; assay: Dirofilaria immitis, Microfilariae (DiMF) In Vitro Assay; settings: Dirofilaria immitis
Haemonchus contortus L3 = assay: Haemonchus contortus, Larvae Stage 3 (HcL3) In Vitro Assay; settings: Haemonchus contortus
[3] = 72 h, read-out: Di MF, MEC, decrease in microfilariae motility by visual assessment, curve starting at 100 μM
[4] = 96 h, read-out: HcL3 MEC, Minimal Effective Concentration whereby worm motility is inhibited by approximately 70%, 37° C., tested 0.001-100 μM
[5] = 96 hours, 37° C., read-out: HcL3 MEC

O=C(NCc1cnc(Cl)s1)N1CC2(CCN(C/C=C/c3ccc(Cl)cc3)CC2)c2c(OC(F)(F)F)ccc(Cl)c21 [Example 57, (E)-7-chloro-1′-(3-(4-chlorophenyl)allyl)-N-((2-chlorothiazol-5-yl)methyl)-4-(trifluoromethoxy)spiro[indoline-3,4′-piperidine]-1-carboxamide]
Ki [1]: 954 nM
minimal effective concentration [2, 3]: 4 µM
minimal effective concentration (Haemonchus contortus L3; [4]): 70 µM

O=C(NCc1ccnc(Cl)c1)N1CC2(CCN(C/C=C/c3ccc(F)cc3)CC2)c2c(OC(F)(F)F)ccc(Cl)c21 [Example 58, (E)-7-chloro-N-((2-chloropyridin-4-yl)methyl)-1′-(3-(4-fluorophenyl)allyl)-4-(trifluoromethoxy)spiro[indoline-3,4′-piperidine]-1-carboxamide]
Ki [1]: 1360 nM
minimal effective concentration [2, 3]: 10 µM
minimal effective concentration (Haemonchus contortus L3; [4]): 100 µM

O=C(NCc1ccnc(Cl)c1)N1CC2(CCN(C/C=C/c3ccc(Cl)cc3)CC2)c2c(Cl)cc(Cl)cc21 [Example 59, (E)-4,6-dichloro-1′-(3-(4-chlorophenyl)allyl)-N-((2-chloropyridin-4-yl)methyl)spiro[indoline-3,4′-piperidine]-1-carboxamide]
Ki [1]: 284 nM
minimal effective concentration ([2]; 72 hours, read-out: Di MF): 10 µM
minimal effective concentration (Haemonchus contortus L3; [5]): 100 µM

O=C(NCc1ccnc(F)c1)N1CC2(CCN(C/C=C/c3ccc(Cl)cc3)CC2)c2c(Cl)cc(Cl)cc21 [Example 60, (E)-4,6-dichloro-1′-(3-(4-chlorophenyl)allyl)-N-((2-fluoropyridin-4-yl)methyl)spiro[indoline-3,4′-piperidine]-1-carboxamide]
Ki [1]: 986 nM
minimal effective concentration [2, 3]: 10 µM
minimal effective concentration (Haemonchus contortus L3; [4]): 100 µM

O=C(NCc1ccnc(F)c1)N1CC2(CCN(C/C=C/c3ccc(Cl)cc3)CC2)c2c1cc(Cl)c(F)c2Cl [Example 61, (E)-4,6-dichloro-1′-(3-(4-chlorophenyl)allyl)-5-fluoro-N-((2-fluoropyridin-4-yl)methyl)spiro[indoline-3,4′-piperidine]-1-carboxamide]
Ki [1]: 671 nM
minimal effective concentration [2, 3]: 10 µM
minimal effective concentration (Haemonchus contortus L3; [4]): 100 µM

O=C(NCc1ccnc(F)c1)N1CC2(CCN(C/C=C/c3ccc(Cl)cc3)CC2)c2c1ccc(Cl)c2Cl [Example 62, (E)-4,5-dichloro-1′-(3-(4-chlorophenyl)allyl)-N-((2-fluoropyridin-4-yl)methyl)spiro[indoline-3,4′-piperidine]-1-carboxamide]
Ki [1]: 329 nM
minimal effective concentration [2, 3]: 10 µM
minimal effective concentration (Haemonchus contortus L3; [4]): 3.3 µM

O=C(NCc1ccnc(F)c1)N1CC2(CCN(C/C=C/c3ccc(Cl)cc3)CC2)c2c1ccc(F)c2Cl [Example 63, (E)-4-chloro-1′-(3-(4-chlorophenyl)allyl)-5-fluoro-N-((2-fluoropyridin-4-yl)methyl)spiro[indoline-3,4′-piperidine]-1-carboxamide]
Ki [1]: 182 nM
minimal effective concentration [2, 3]: 5.7 µM
minimal effective concentration (Haemonchus contortus L3; [4]): 8.2 µM

O=C(NCc1cnc(Cl)s1)N1CC2(CCN(C/C=C/c3ccc(Cl)cc3)CC2)c2c1ccc(Cl)c2Cl [Example 64, (E)-4,5-dichloro-1′-(3-(4-chlorophenyl)allyl)-N-((2-chlorothiazol-5-yl)methyl)spiro[indoline-3,4′-piperidine]-1-carboxamide]
Ki [1]: 116 nM
minimal effective concentration ([2]; 72 hours, read-out: Di MF): 5.7 µM
minimal effective concentration (Haemonchus contortus L3; [5]): 10 µM

COc1cc2c(cn1)C1(CCN(C/C=C/c3ccc(Cl)c(Cl)c3)CC1)CN2C(=O)NCc1ccnc(Cl)c1 [Example 65, (E)-N-((2-chloropyridin-4-yl)methyl)-1-(3-(3,4-dichlorophenyl)allyl)-6′-methoxyspiro[piperidine-4,3′-pyrrolo[3,2-c]pyridine]-1′(2′H)-carboxamide]
Ki [1]: 49.4 nM
minimal effective concentration [2, 3]: 1.8 µM
minimal effective concentration (Haemonchus contortus L3; [4]): 3.3 µM

N#Cc1cc2c(cn1)N(C(=O)NCc1ccnc(Cl)c1)CC21CCN(C/C=C/c2ccc(Cl)c(Cl)c2)CC1 [Example 66, (E)-N-((2-chloropyridin-4-yl)methyl)-5′-cyano-1-(3-(3,4-dichlorophenyl)allyl)spiro[piperidine-4,3′-pyrrolo[2,3-c]pyridine]-1′(2′H)-carboxamide]
Ki [1]: 24.1 nM
minimal effective concentration [2, 3]: 10 µM
minimal effective concentration (Haemonchus contortus L3; [4]): 1.8 µM

N#Cc1ccc2c(n1)C1(CCN(C/C=C/c3ccc(Cl)c(Cl)c3)CC1)CN2C(=O)NCc1ccnc(Cl)c1 [Example 67, (E)-N-((2-chloropyridin-4-yl)methyl)-5′-cyano-1-(3-(3,4-dichlorophenyl)allyl)spiro[piperidine-4,3′-pyrrolo[3,2-b]pyridine]-1′(2′H)-carboxamide]
Ki [1]: 33.5 nM
minimal effective concentration [2, 3]: 5.7 µM
minimal effective concentration (Haemonchus contortus L3; [4]): 10 µM

COc1nccc2c1C1(CCN(C/C=C/c3ccc(Cl)c(Cl)c3)CC1)CN2C(=O)NCc1ccnc(Cl)c1 [Example 68, (E)-N-((2-chloropyridin-4-yl)methyl)-1-(3-(3,4-dichlorophenyl)allyl)-4′-methoxyspiro[piperidine-4,3′-pyrrolo[3,2-c]pyridine]-1′(2′H)-carboxamide]
Ki [1]: 815 nM
minimal effective concentration [2, 3]: 1.3 µM
minimal effective concentration (Haemonchus contortus L3; [4]): 33 µM

O=C(NCc1ccnc(F)c1)N1CC2(CCN(C/C=C/c3ccc(Cl)cc3)CC2)c2cc(F)c(Cl)cc21 [Example 69, (E)-6-chloro-1′-(3-(4-chlorophenyl)allyl)-5-fluoro-N-((2-fluoropyridin-4-yl)methyl)spiro[indoline-3,4′-piperidine]-1-carboxamide]
Ki [1]: 55.2 nM
minimal effective concentration [2, 3]: 6.5 µM
minimal effective concentration (Haemonchus contortus L3; [4]): 2.5 µM

O=C(NCc1ccnc(F)c1)N1CC2(CCN(C/C=C/c3ccc(Cl)cc3)CC2)c2cc(Cl)c(Cl)cc21 [Example 70, (E)-5,6-dichloro-1′-(3-(4-chlorophenyl)allyl)-N-((2-fluoropyridin-4-yl)methyl)spiro[indoline-3,4′-piperidine]-1-carboxamide]
Ki [1]: 252 nM
minimal effective concentration [2, 3]: 7.6 µM
minimal effective concentration (Haemonchus contortus L3; [4]): 3.3 µM

O=C(NCc1ccnc(F)c1)N1CC2(CCN(C/C=C/c3ccc(Cl)cc3)CC2)c2cc(Cl)c(F)cc21 [Example 71, (E)-5-chloro-1′-(3-(4-chlorophenyl)allyl)-6-fluoro-N-((2-fluoropyridin-4-yl)methyl)spiro[indoline-3,4′-piperidine]-1-carboxamide]
Ki [1]: 31.4 nM
minimal effective concentration [2, 3]: 3.3 µM
minimal effective concentration (Haemonchus contortus L3; [4]): 3.3 µM

N#Cc1ccc(/C=C/CN2CCC3(CC2)CN(C(=O)NCc2ccnc(Cl)c2)c2cc(C(F)(F)F)c(Cl)cc23)cc1 [Example 72, (E)-5-chloro-N-((2-chloropyridin-4-yl)methyl)-1′-(3-(4-cyanophenyl)allyl)-6-(trifluoromethyl)spiro[indoline-3,4′-piperidine]-1-carboxamide]
Ki [1]: 27 nM
minimal effective concentration [2, 3]: 3.3 µM
minimal effective concentration (Haemonchus contortus L3; [4]): 10 µM

O=C(NCc1ccnc(F)c1)N1CC2(CCN(C/C=C/c3ccc(Cl)cc3)CC2)c2ccc(-c3ccccc3OC(F)(F)F)cc21 [Example 73, (E)-1′-(3-(4-chlorophenyl)allyl)-N-((2-fluoropyridin-4-yl)methyl)-6-(2-(trifluoromethoxy)phenyl)spiro[indoline-3,4′-piperidine]-1-carboxamide]
Ki [1]: 29.5 nM
minimal effective concentration [2, 3]: 3.3 µM
minimal effective concentration (Haemonchus contortus L3; [4]): 100 µM
